Assay results: PMC9917560, “Design, Synthesis and Antimicrobial Evaluation of New N-(1-Hydroxy-1,3-dihydrobenzo[c][1,2]oxaborol-6-yl)(hetero)aryl-2-carboxamides as Potential Inhibitors of Mycobacterial Leucyl-tRNA Synthetase” (International Journal of Molecular Sciences, 2023)
Values after ≈ are worked out from the molar mass of the structure shown. Like-named read-outs stand apart in the source and are kept apart here.

Tests used:
[1] = tested on: Pseudomonas aeruginosa CCM 3955 (ATCC 27853); assay: Antibacterial microdilution broth (EUCAST); assay type: cell-based; details: read-out: MIC Pseudomonas aeruginosa
[2] = tested on: Candida albicans CCM 8320 (ATCC 24433); assay: Antifungal microdilution broth (EUCAST); assay type: cell-based; details: Candida albicans, read-out: MIC Candida albicans
[3] = tested on: methicillin-resistant Staphylococcus aureus subsp. aureus (MRSA) CCM 4750 (ATCC 43300); assay: microbe, parasite or virus in culture; assay type: cell-based; details: read-out: MIC Methicillin-resistant Staphylococcus aureus subsp. aureus
[4] = tested on: Candida tropicalis CCM 8264 (ATCC 750); assay: Antifungal microdilution broth (EUCAST); assay type: cell-based; details: read-out: MIC Candida tropicalis
[5] = tested on: Aspergillus fumigatus ATCC 204305; assay: Antifungal microdilution broth (EUCAST); assay type: cell-based; details: Aspergillus fumigatus, read-out: MIC Aspergillus fumigatus
[6] = tested on: Mycolicibacterium aurum DSM 43,999 (ATCC 23366); assay: Antimycobacterial microdilution (resazurin) vs M. aurum; assay type: cell-based; details: Middlebrook 7H9, resazurin, read-out: MIC M. aurum
[7] = tested on: Trichophyton interdigitale CCM 8377 (ATCC 9533); assay: Antifungal microdilution broth (EUCAST); assay type: cell-based; details: Trichophyton interdigitale, read-out: MIC Trichophyton interdigitale
[8] = tested on: Staphylococcus aureus subsp. aureus CCM 4223 (ATCC 29213); assay: Antibacterial microdilution broth (EUCAST); assay type: cell-based; details: read-out: MIC Staphylococcus aureus subsp. aureus
[9] = tested on: Staphylococcus epidermidis CCM 4418 (ATCC 12228); assay: Antibacterial microdilution broth (EUCAST); assay type: cell-based; details: read-out: MIC Staphylococcus epidermidis
[10] = tested on: Candida parapsilosis CCM 8260 (ATCC 22019); assay: Antifungal microdilution broth (EUCAST); assay type: cell-based; details: Lodderomyces parapsilosis, read-out: MIC Candida parapsilosis
[11] = tested on: Mycobacterium tuberculosis H37Ra ITM-M006710 (ATCC 9431); assay: Antimycobacterial microdilution (resazurin) vs Mtb H37Ra; assay type: cell-based; details: Middlebrook 7H9, resazurin, recalculated from µg/mL, read-out: MIC Mtb H37Ra
[12] = tested on: Escherichia coli CCM 3954 (ATCC 25922); assay: Antibacterial microdilution broth (EUCAST); assay type: cell-based; details: Escherichia coli, read-out: MIC Escherichia coli
[13] = tested on: Klebsiella pneumoniae CCM 4415 (ATCC 10031); assay: Antibacterial microdilution broth (EUCAST); assay type: cell-based; details: Klebsiella pneumoniae, read-out: MIC Klebsiella pneumoniae
[14] = tested on: Acinetobacter baumannii DSM 30007 (ATCC 19606); assay: Antibacterial microdilution broth (EUCAST); assay type: cell-based; details: read-out: MIC Acinetobacter baumannii
[15] = tested on: HepG2 cell line; assay: Cytotoxicity screening, CellTiter 96 assay; details: for IC50: Homo sapiens, HepG2, 24 h, read-out: IC50 HepG2; for toxicity to HepG2 up to highest tested concentration: tested up to 500 µM (2, 3), 250 µM (12, 17), 100 µM (6, 7, 11) because of solubility
[16] = tested on: Mycobacterium avium DSM 44,156 (ATCC 25291); assay: Antimycobacterial microdilution (resazurin) vs M. avium; assay type: cell-based; details: Mycobacterium avium, Middlebrook 7H9, resazurin; read-out: MIC M. avium
[17] = tested on: Lichtheimia corymbifera CCM 8077; assay: Antifungal microdilution broth (EUCAST); assay type: cell-based; details: Lichtheimia corymbifera, read-out: MIC Lichtheimia corymbifera
[18] = tested on: Mycobacterium tuberculosis H37Rv CNCTC My 331/88 (ATCC 27294); assay: Microplate Alamar Blue assay vs Mtb H37Rv; assay type: cell-based; details: Mycobacterium tuberculosis, pH 6.6, MABA, Middlebrook 7H9 pH 6.6, recalculated from µg/mL; read-out: MIC Mtb H37Rv
[19] = tested on: Mycolicibacterium smegmatis DSM 43,465 (ATCC 607); assay: Antimycobacterial microdilution (resazurin) vs M. smegmatis; assay type: cell-based; details: Middlebrook 7H9, resazurin, read-out: MIC M. smeg.
[20] = tested on: Mycobacterium kansasii DSM 44,162 (ATCC 12478); assay: Antimycobacterial microdilution (resazurin) vs M. kansasii; assay type: cell-based; details: read-out: MIC M. kansasii
[21] = tested on: Aspergillus flavus CCM 8363; assay: Antifungal microdilution broth (EUCAST); assay type: cell-based; details: Aspergillus flavus, read-out: MIC Aspergillus flavus
[22] = tested on: Enterococcus faecalis CCM 4224 (ATCC 29212); assay: Antibacterial microdilution broth (EUCAST); assay type: cell-based; details: read-out: MIC Enterococcus faecalis
[23] = tested on: Candida krusei CCM 8271 (ATCC 6258); assay: Antifungal microdilution broth (EUCAST); assay type: cell-based; details: Pichia kudriavzevii, read-out: MIC Candida krusei

Compound: O=C(Nc1ccc2c(c1)B(O)OC2)c1ccc(C(F)(F)F)cn1 [Compound 11, N-(1-hydroxy-1,3-dihydrobenzo[c][1,2]oxaborol-6-yl)-5-(trifluoromethyl)picolinamide]
- MIC ([1]; 24 h): > 125 µM
- MIC ([1]; 48 h): > 125 µM
- MIC ([2]; 24 h): > 125 µM
- MIC ([2]; 48 h): > 125 µM
- melting point: 188.1 to 188.9 °C
- MIC ([3]; 24 h): > 125 µM
- MIC ([3]; 48 h): > 125 µM
- MIC ([4]; 24 h): > 125 µM
- MIC ([4]; 48 h): > 125 µM
- MIC ([5]; ATCC204305, 24 h): > 125 µM
- MIC ([5]; ATCC204305, 48 h): > 125 µM
- MIC [6]: 24.2 µM (≈ 7.81 µg/mL)
- MIC ([7]; 72 h): > 125 µM
- MIC ([7]; 120 h): > 125 µM
- MIC ([8]; 24 h): > 125 µM
- MIC ([8]; 48 h): > 125 µM
- MIC ([9]; 24 h): > 125 µM
- MIC ([9]; 48 h): > 125 µM
- MIC ([10]; 24 h): > 125 µM
- MIC ([10]; 48 h): > 125 µM
- MIC [11]: 97 µM (≈ 31.2 µg/mL)
- MIC ([12]; 24 h): > 125 µM
- MIC ([12]; 48 h): > 125 µM
- MIC ([13]; 24 h): > 125 µM
- MIC ([13]; 48 h): > 125 µM
- MIC ([14]; 24 h): > 125 µM
- MIC ([14]; 48 h): > 125 µM
- IC50 [15]: > 100 µM
- toxicity to HepG2 up to highest tested concentration [15]: non-toxic
- MIC [16]: 97 µM (≈ 31.2 µg/mL)
- MIC ([17]; CCM8077, 24 h): > 125 µM
- MIC ([17]; CCM8077, 48 h): > 125 µM
- MIC [18]: 9.72 µM (≈ 3.13 µg/mL)
- MIC [19]: 24.2 µM (≈ 7.81 µg/mL)
- MIC ([20]; Middlebrook 7H9, resazurin): 12.1 µM (≈ 3.91 µg/mL)
- MIC ([21]; CCM8363, 24 h): > 125 µM
- MIC ([21]; CCM8363, 48 h): > 125 µM
- MIC ([22]; 24 h): > 125 µM
- MIC ([22]; 48 h): > 125 µM
- MIC ([23]; 24 h): > 125 µM
- MIC ([23]; 48 h): > 125 µM

Compound: O=C(Nc1ccc2c(c1)B(O)OC2)c1ccc(C(F)(F)F)nc1 [Compound 12, N-(1-hydroxy-1,3-dihydrobenzo[c][1,2]oxaborol-6-yl)-6-(trifluoromethyl)nicotinamide]
- MIC ([1]; 24h incubation): > 500 µM
- MIC ([1]; 48h incubation): > 500 µM
- MIC ([2]; 24h incubation): > 500 µM
- MIC ([2]; 48h incubation): > 500 µM
- melting point: 227.3 to 229.4 °C
- MIC ([3]; 24 h): > 500 µM
- MIC ([3]; 48 h): > 500 µM
- MIC ([4]; 24h incubation): > 500 µM
- MIC ([4]; 48h incubation): > 500 µM
- MIC ([5]; ATCC204305, 24h incubation): > 500 µM
- MIC ([5]; ATCC204305, 48h incubation): > 500 µM
- MIC [6]: 12.1 µM (≈ 3.91 µg/mL)
- MIC ([7]; 72h incubation): > 500 µM
- MIC ([7]; 120h incubation): > 500 µM
- MIC ([8]; 24h incubation): > 500 µM
- MIC ([8]; 48h incubation): > 500 µM
- MIC ([9]; 24h incubation): > 500 µM
- MIC ([9]; 48h incubation): > 500 µM
- MIC ([10]; 24h incubation): > 500 µM
- MIC ([10]; 48h incubation): > 500 µM
- MIC [11]: 194 µM (≈ 62.5 µg/mL)
- MIC ([12]; 24h incubation): > 500 µM
- MIC ([12]; 48h incubation): > 500 µM
- MIC ([13]; 24h incubation): > 500 µM
- MIC ([13]; 48h incubation): > 500 µM
- MIC ([14]; 24h incubation): > 500 µM
- MIC ([14]; 48h incubation): > 500 µM
- IC50 [15]: > 250 µM
- toxicity to HepG2 up to highest tested concentration [15]: non-toxic
- MIC [16]: 388 µM (≈ 125 µg/mL)
- MIC ([17]; CCM8077, 24h incubation): > 500 µM
- MIC ([17]; CCM8077, 48h incubation): > 500 µM
- MIC [18]: 155 µM (≈ 50 µg/mL)
- MIC [19]: 24.2 µM (≈ 7.81 µg/mL)
- MIC [20]: 194 µM (≈ 62.5 µg/mL)
- MIC ([21]; CCM8363, 24h incubation): > 500 µM
- MIC ([21]; CCM8363, 48h incubation): > 500 µM
- MIC ([22]; 24h incubation): > 500 µM
- MIC ([22]; 48h incubation): > 500 µM
- MIC ([23]; 24h incubation): > 500 µM
- MIC ([23]; 48h incubation): > 500 µM
